For the assay, the target named is cGMP-PDE V (Homo sapiens, UniProt O76074). Put plainly: biochemical. To be noted: for inhibition at 1 µM / inhibition at 10 µM / inhibition at 0.1 µM / inhibition at 0.01 µM: read-out: Percent Inhibition cGMP-PDE V; for IC50: values separated by / and marked * are separate experimental runs. More on the design: species or system various animal species and man. Here is the method: The cGMP-PDE and other PDE isozymes were isolated from cardiovascular tissues (heart and aorta) of various animal species and man by anion-exchange and affinity chromatography as described by Silver et al., Sec. Messeng. Phos. 13:13-25, 1991; PDE activity, in the presence and absence of test compounds was determined essentially as described by Thompson et al., Adv. Cyclic Nucleotide Res. 10:69-92. To determine the potency and selectivity of compounds as PDE inhibitors, compounds are screened for their effect on cyclic nucleotide hydrolysis at 10 μM. […] The IC50 values are calculated from concentration-response curves as described by Tallarida and Murray, Manual of Pharmacologic Calculations with Computer Programs, Procedure 8, Graded Dose-response, pp. 14-19, Springer-Verlag, New York, 1981.

Several values for one entry are separate records, joined by “and”; a condition that tells them apart may be missing. Equal values may be shown once. Where a name gives a salt, the structure may show the parent alone.

A word on the inhibition: it is how much of the control response was suppressed. For `CCc1[nH]n(C2CCCC2)c2nc(-c3ccc(OCCCN(C)C)cc3)nc(=O)c1-2` [Example 10, 1-cyclopentyl-3-ethyl-6-[4-[3-(dimethylamino)propoxy]phenyl]pyrazolo[3,4-d]pyrimidin-4-one], the inhibition at 1 µM stood at 15% and the inhibition at 10 µM was determined as 85%.

Broadly, the IC50 is the point on the concentration scale where inhibition reaches its midpoint. Read a low IC50 as inhibition by little substance. Regarding `CCc1nn(C2CCCC2)c2nc(-c3ccc(OCC(=O)O)cc3OC)[nH]c(=O)c12` [Example 14, 1-cyclopentyl-3-ethyl-6-[(2-methoxy-4-carboxymethoxy)phenyl]pyrazolo[3,4-d]pyrimidin-4-one], half-maximal inhibition (IC50) was put at 810 nM.

`CCc1nn(C2CCCC2)c2nc(-c3cccc(OCCN(C)C)c3)[nH]c(=O)c12` [23 (c)] had an IC50 of 540 nM.

As for `CCc1[nH]n(C2CCCC2)c2nc(-c3cccc(OC4CCCCN(C)C4)c3)nc(=O)c1-2` (centres unmarked) [43 (b), 1-cyclopentyl-3-ethyl-6-[3-(1-methyl-3-hexahydroazepinyloxy)phenyl]pyrazolo[3,4-d]pyrimidin-4-one], the inhibition at 1 µM stood at 75%. For the same compound, where the note is “0.1 μM”, the inhibition at 0.1 µM was found to be 41%.

`CCc1[nH]n(C2CCCC2)c2nc(-c3ccccc3OCCN3CCOCC3)nc(=O)c1-2` [11 (c), 1-cyclopentyl-3-ethyl-6-[2-[2-(4-morpholinyl)ethoxy]phenyl]pyrazolo[3,4-d]pyrimidin-4-one monohydrochloride]: the IC50 is 2700 nM and 4500 nM.

Regarding `CCc1nn(C2CCCC2)c2nc(-c3ccccc3OCC(=O)O)[nH]c(=O)c12` [Example 16, 1-cyclopentyl-3-ethyl-6-[2-(carboxymethoxy)phenyl]pyrazolo[3,4-d]pyrimidin-4-one 1/2 hydrate], the inhibition at 1 µM was 19% and the inhibition at 10 µM stood at 68%.

For the compound `CCc1[nH]n(C2CCCC2)c2nc(-c3cccc(OCc4ccncc4)c3)nc(=O)c1-2` [42 (c), 1-cyclopentyl-3-ethyl-6-[3-[4-pyridinylmethoxy]phenyl]pyrazolo[3,4-d]pyrimidin-4-one], the inhibition at 0.01 µM (0.01 μM) was 25%. The inhibition at 0.1 µM (0.1 μM) worked out at 56%.

As for `CCc1[nH]n(C2CCCC2)c2nc(-c3cc(OCCN4CCOCC4)cc(OCCN4CCOCC4)c3)nc(=O)c1-2` [38 (b), 1-cyclopentyl-3-ethyl-6-[3,5-di[2-(4-morpholinyl)ethoxy]phenyl]pyrazolo[3,4-d]pyrimidin-4-one], the inhibition at 0.01 µM (0.01 μM) came to 11%. The inhibition at 0.1 µM (0.1 μM) worked out at 63%.

In the case of `CCOC(=O)COc1ccccc1-c1nc2n(C3CCCC3)[nH]c(CC)c-2c(=O)n1` [12 (b), 1-cyclopentyl-3-ethyl-6-[2-(ethoxycarbonylmethoxy)phenyl]pyrazolo [3,4-d]pyrimidin-4-one], the inhibition at 1 µM was 74%. For the same compound, where the note is “0.1 μM”, the inhibition at 0.1 µM was found to be 30%.

`CCc1[nH]n(C2CCCC2)c2nc(-c3ccc(OCCN4CCOCC4)cc3)nc(=O)c1-2` [18 (b), 1-cyclopentyl-3-ethyl-6-[4-[2-(4-morpholinyl)ethoxy]phenyl]pyrazolo[3,4-d]pyrimidin-4-one]: half-maximal inhibition (IC50) was put at 370 nM.

For `C=CCc1cccc(-c2nc3n(C4CCCC4)[nH]c(CC)c-3c(=O)n2)c1O` [Example 36, 1-cyclopentyl-3-ethyl-6-[2-hydroxy-3-(2-propenyl)phenyl]pyrazolo[3,4-d]pyrimidin-4-one], the inhibition at 1 µM turned out to be 4%. The inhibition at 0.1 µM (0.1 μM) worked out at 0%.

With `CCc1[nH]n(C2CCCC2)c2nc(-c3ccccc3-n3ccnc3)nc(=O)c1-2` [27 (c), 1-cyclopentyl-3-ethyl-6-[2-(1-imidazolyl)phenyl]pyrazolo[3,4-d]pyrimidin-4-one], the inhibition at 1 µM came out at 73%. For the same compound, the inhibition at 0.1 µM (0.1 μM) is 21%.

As for `CCc1[nH]n(C2CCCC2)c2nc(-c3ccc([N+](=O)[O-])cc3)nc(=O)c1-2` [Example 28, 1-cyclopentyl-3-ethyl-6-(4-nitrophenyl)pyrazolo [3,4-d]pyrimidin-4-one], the inhibition at 1 µM was 40%.

With “1-cyclopentyl-3-ethyl-6-[2-methyl-2,3-dihydrobenzo[b]furan-5-yl]pyrazolo[3,4-d]pyrimidin-4-one [Example 39]”, the “Percent Inhibition cGMP-PDE V” value came to 24% (0.01 μM) and 65% (0.1 μM).

In the case of `CCc1[nH]n(C2CCCC2)c2nc(-c3ccccc3OCCOC)nc(=O)c1-2` [34 (b), 1-cyclopentyl-3-ethyl-6-[2-[2-(methoxy)ethoxy]phenyl]pyrazolo[3,4-d]pyrimidin-4-one], the inhibition at 0.01 µM (0.01 μM) turned out to be 28%. For the same compound, where the note is “0.1 μM”, the inhibition at 0.1 µM is 56%.

As to `CCc1[nH]n(C2CCCC2)c2nc(-c3ccccc3OCCCN3CCOCC3)nc(=O)c1-2` [26 (c), 1-cyclopentyl-3-ethyl-6-[2-[3-(4-morpholinyl)propoxy]phenyl]pyrazolo[3,4-d]pyrimidin-4-one], the inhibition at 1 µM came to 28%.

As for `CCOC(=O)COc1cccc(-c2nc3n(C4CCCC4)[nH]c(CC)c-3c(=O)n2)c1` [20 (b), 1-cyclopentyl-3-ethyl-6-[3-(ethoxycarbonylmethoxy)phenyl]pyrazolo[3,4-d]pyrimidin-4-one], the midpoint of inhibition, the IC50, lay at 94 nM.

In the case of `CCc1[nH]n(C2CCCC2)c2nc(-c3cccc(O)c3)nc(=O)c1-2` [Example 44, 1-cyclopentyl-3-ethyl-6-(3-hydroxyphenyl)pyrazolo[3,4-d]pyrimidin-4-one], the inhibition at 1 µM was 56%. Also, under “0.1 μM”, the inhibition at 0.1 µM is 29%.

Turning to `CCc1[nH]n(C2CCCC2)c2nc(-c3ccccc3)nc(=O)c1-2` [Example 2, 1-cyclopentyl-3-ethyl-6-phenyl-pyrazolo[3,4-d]pyrimidin-4-one], the IC50 worked out at 250 nM.

For the compound `CCc1nn(C2CCCC2)c2nc(-c3ccc(N)cc3)[nH]c(=O)c12` [Example 31, 1-cyclopentyl-3-ethyl-6-(4-aminophenyl)pyrazolo[3,4-d]pyrimidin-4-one hydrochloride 1/3 hydrate], the inhibition at 1 µM came out at 61%. Moreover, where the note is “0.1 μM”, the inhibition at 0.1 µM is 31%.

Take `CCc1nn(C2CCCC2)c2nc(-c3ccc(-n4ccnc4)cc3)[nH]c(=O)c12` [8 (b), 1-cyclopentyl-3-ethyl-6-[4-(1-imidazolyl)phenyl]pyrazole[3,4-d]pyrimidin-4-one]: the inhibition at 1 µM was determined as 70%. For the same compound, for the setting “0.1 μM”, the inhibition at 0.1 µM was determined as 32%.

In the case of `CCc1[nH]n(C2CCCC2)c2nc(-c3ccc(Cl)cc3O)nc(=O)c1-2` [Example 30, 1-cyclopentyl-3-ethyl-6-(4-chloro-2-hydroxyphenyl)pyrazolo[3,4-d]pyrimidin-4-one], the inhibition at 1 µM was found to be 53%. Besides, where the note is “0.1 μM”, the inhibition at 0.1 µM was 9%.

As to `CCc1[nH]n(C2CCCC2)c2nc(-c3ccc(NS(C)(=O)=O)cc3)nc(=O)c1-2` [Example 33, 1-cyclopentyl-3-ethyl-6-[4-(methylsulfonylamino)phenyl]pyrazolo[3,4-d]pyrimidin-4-one], the inhibition at 1 µM came out at 56%. Also, under “0.1 μM”, the inhibition at 0.1 µM was determined as 21%.

Turning to `CCc1[nH]n(C2CCCC2)c2nc(-c3ccccc3C(F)(F)F)nc(=O)c1-2` [Example 15, 1-cyclopentyl-3-ethyl-6-(2-trifluoromethylphenyl)-pyrazolo[3,4-d]pyrimidin-4-one], 500 nM corresponded to half-maximal inhibition (IC50).

Consider `CCc1nn(C2CCCC2)c2nc(-c3ccc4c(c3)CCO4)[nH]c(=O)c12` [Example 32, 1-cyclopentyl-3-ethyl-6-(2,3-dihydrobenzo[b]furan-5-yl)pyrazolo[3,4-d]pyrimidin-4-one 1/10 hydrate], for which the inhibition at 1 µM amounted to 47%. The inhibition at 0.1 µM (0.1 μM) amounted to 23%.

These data come from patent publication US5736548A, “6-aryl pyrazolo[3,4-D] pyrimidin-4-ones and compositions and method of use thereof” (Sanofi, priority 1997, dated 1998).
